The text below walks through data of patent US20250345446A1 (Draupnir Bio ApS, priority 2022, published 2025).

pKd: −log10 of the molar value. Where two headings read alike, the source gives them in different places. Residues, ends and D or L forms follow the SMILES beside them. No end group written: not given here. *: point of attachment. Biotin = O=C1N[C@H]2[C@H](CS[C@H]2CCCCC(=O)*)N1 Some results are limits rather than exact numbers.

This test has as its target T1, soluble ectodomain of sortilin-6his (Homo sapiens, UniProt Q99523, V650M).
T1 construct: the soluble ectodomain of sortilin-6his is measured by microscale thermophoresis (MST)
Description: MST binding to soluble ectodomain of sortilin-6his. The conditions noted are these: MST; for pKd: read-out: KD score, binding to sortilin (Kd). On the procedure:
At this point the plate was sealed with adhesive strip and placed on an Eppendorf thermomixer to shake at 600 rpm for 3 min before spinning on a Fisherbrand plate-spinner for 15 seconds and further incubation 1 hrs at 19° C. MST was measured on a Monolith NT. Automated (Nanotemper) in standard-treated capillaries at 5% LED-power and high MST-power. Dose-response was extracted from the raw thermographs at 20 sec hot-time and the dissociation constant was estimated by sigmoidal curve fitting in MO. Affinity analysis program (Nanotemper). All experiments were run in duplicates.

Where [1] appears, read: Table 4, small molecule bifunctional compounds.
[2] abbreviates: Table 3, monofunctional peptides.
Setting [3] is: Table 1, biotin-linker-peptide bifunctional compounds.

`C[C@@H]1CN(c2ncc(-c3ccc4c(n3)N(Cc3cccnc3C#N)C(C)(C)C4=O)cn2)CCN1C(=O)Cn1cc(COCCOCCOC2CN(CCOCCOc3cccc(Oc4ccc(C(=O)N[C@@H](CCC(C)(C)C)C(=O)O)cn4)c3)C2)nn1` [BF114, (2S)-2-[[6-[3-[2-[2-[3-[2-[2-[[1-[2-[(2R)-4-[5-[1-[(2-cyano-3-pyridyl)methyl]-2,2-dimethyl-3-oxo-pyrrolo[2,3-b]pyridin-6-yl]pyrimidin-2-yl]-2-methyl-piperazin-1-yl]-2-oxo-ethyl]triazol-4-yl]methoxy]ethoxy]ethoxy]azetidin-1-yl]ethoxy]ethoxy]phenoxy]pyridine-3-carbonyl]amino]-5,5-dimethyl-hexanoic acid]: the pKd (usually −log10 of the Kd, conventionally taken in molar units) under setting [1] was more than 9.00.
Consider `C[C@@H]1CN(c2ncc(-c3ccc4c(n3)N(Cc3cccnc3C#N)C(C)(C)C4=O)cn2)CCN1C(=O)Cc1cn(CCCCCCCCCn2cc(-c3cccc(Oc4ccc(C(=O)N[C@@H](CCC(C)(C)C)C(=O)O)cn4)c3)nn2)nn1` [BF104, (2S)-2-[[6-[3-[1-[9-[4-[2-[(2R)-4-[5-[1-[(2-cyano-3-pyridyl)methyl]-2,2-dimethyl-3-oxo-pyrrolo[2,3-b]pyridin-6-yl]pyrimidin-2-yl]-2-methyl-piperazin-1-yl]-2-oxo-ethyl]triazol-1-yl]nonyl]triazol-4-yl]phenoxy]pyridine-3-carbonyl]amino]-5,5-dimethyl-hexanoic acid], for which the negative logarithm of the Kd (pKd) under setting [1] is more than 9.00.
Same read-out and setting: the figure for `CC(C)(C)CC[C@H](NC(=O)c1ccc(Oc2cccc(C(=O)NCCOCCOc3ncc(-c4ccc5c(n4)N(Cc4cccnc4C#N)C(C)(C)C5=O)cn3)c2)nc1)C(=O)O` [BF053] is 8.00 to 9.00.
For LYENK-NH2 [compound 65], under setting [2], the pKd is less than 5.60.
`CC(C)(C)CC[C@H](NC(=O)c1ccc(Oc2cccc(C(=O)NCCOCCOCCOCCOCCOCc3ccc(-c4cccc5ccncc45)c(OCCc4ccc(-c5cccc6ccncc56)cc4)c3)c2)nc1)C(=O)O` [BF037, (2S)-2-[[6-[3-[2-[2-[2-[2-[2-[[4-(8-isoquinolyl)-3-[2-[4-(8-isoquinolyl)phenyl]ethoxy]phenyl]methoxy]ethoxy]ethoxy]ethoxy]ethoxy]ethylcarbamoyl]phenoxy]pyridine-3-carbonyl]amino]-5,5-dimethyl-hexanoic acid]: under setting [1], the pKd was more than 9.00.
Regarding `CC(C)C[C@H](NC(=O)[C@H](CC(C)C)NC(=O)[C@H](CCC(N)=O)NC(=O)[C@H](Cc1ccccc1)NC(=O)CNC(=O)CNC(=O)[C@H](CO)NC(=O)CNC(=O)CNC(=O)CCCC[C@@H]1SC[C@@H]2NC(=O)N[C@@H]21)C(=O)O` [compound 144] (Biotin-GGSGGFQLL-OH), the negative logarithm of the Kd (pKd) under setting [3] is more than 7.00.
Consider `C[C@@H]1CN(c2ncc(-c3ccc4c(n3)N(Cc3cccnc3C#N)C(C)(C)C4=O)cn2)CCN1C(=O)COCCOCCOCCOCCNC(=O)c1cccc(Oc2ccc(C(=O)N[C@@H](CCC(C)(C)C)C(=O)O)cn2)c1` [BF031, (2S)-2-[[6-[3-[2-[2-[2-[2-[2-[(2R)-4-[5-[1-[(2-cyano-3-pyridyl)methyl]-2,2-dimethyl-3-oxo-pyrrolo[2,3-b]pyridin-6-yl]pyrimidin-2-yl]-2-methyl-piperazin-1-yl]-2-oxo-ethoxy]ethoxy]ethoxy]ethoxy]ethylcarbamoyl]phenoxy]pyridine-3-carbonyl]amino]-5,5-dimethyl-hexanoic acid], for which the pKd under setting [1] is 6.60 to 8.00.
In the case of `CC(C)(C)CC[C@H](NC(=O)c1ccc(Oc2cccc3c(C(=O)NCCCNC(=O)CCOCCOCCNc4ccc([N+](=O)[O-])cc4[N+](=O)[O-])cccc23)nc1)C(=O)O` [BF009], under setting [1], the pKd was 8.00 to 9.00.
Regarding `CC(C)C[C@H](NC(=O)[C@H](CC(C)C)NC(=O)[C@H](CCC(N)=O)NC(=O)[C@@H](N)CCCNC(=N)N)C(=O)O` [compound 22, RQLL-OH] (H-RQLL-OH), under setting [2], the pKd is 6.60 to 7.60.
For `C[C@@H]1CN(c2ncc(-c3ccc4c(n3)N(Cc3cccnc3C#N)C(C)(C)C4=O)cn2)CCN1C(=O)Cn1cc(COCCOCCOCC(=O)N2CC(Oc3cccc(Oc4ccc(C(=O)N[C@@H](CCC(C)(C)C)C(=O)O)cn4)c3)C2)nn1` [BF111, (2S)-2-[[6-[3-[1-[2-[2-[2-[[1-[2-[(2R)-4-[5-[1-[(2-cyano-3-pyridyl)methyl]-2,2-dimethyl-3-oxo-pyrrolo[2,3-b]pyridin-6-yl]pyrimidin-2-yl]-2-methyl-piperazin-1-yl]-2-oxo-ethyl]triazol-4-yl]methoxy]ethoxy]ethoxy]acetyl]azetidin-3-yl]oxyphenoxy]pyridine-3-carbonyl]amino]-5,5-dimethyl-hexanoic acid], under setting [1], the negative logarithm of the Kd (pKd) was more than 9.00.
Still for that read-out and setting: to `CC(C)(C)CC[C@H](NC(=O)c1ccc(Oc2cccc(OCCOCCOCCOCCNc3ccc([N+](=O)[O-])cc3[N+](=O)[O-])c2)nc1)C(=O)O` [BF007, (2S)-2-[[6-[3-[2-[2-[2-[2-(2,4-dinitroanilino)ethoxy]ethoxy]ethoxy]ethoxy]phenoxy]pyridine-3-carbonyl]amino]-5,5-dimethyl-hexanoic acid] belongs 8.00 to 9.00.
Turning to `CC(C)C[C@H](NC(=O)[C@H](CC(C)C)NC(=O)[C@H](CCC(N)=O)NC(=O)[C@H](CCCNC(=N)N)NC(=O)CNC(=O)CNC(=O)CCCC[C@@H]1SC[C@@H]2NC(=O)N[C@@H]21)C(=O)O` [compound 153] (Biotin-GGRQLL-OH), the pKd under setting [3] is more than 7.00.
With `CC(C)C[C@H](NC(=O)[C@H](CCCNC(=N)N)NC(=O)[C@H](C)NC(=O)[C@H](C)N)C(=O)O` [compound 196, AARL-OH] (H-AARL-OH), the pKd under setting [2] was 5.60 to 6.60.
With `C[C@@H]1CN(c2ncc(-c3ccc4c(n3)N(Cc3cccnc3C#N)C(C)(C)C4=O)cn2)CCN1C(=O)COCCNC(=O)c1cccc(Oc2ccc(C(=O)N[C@@H](CCC(C)(C)C)C(=O)O)cn2)c1` [BF058, (S)-2-(6-(3-((2-(2-((R)-4-(5-(1-((2-cyanopyridin-3-yl)methyl)-2,2-dimethyl-3-oxo-2,3-dihydro-1H-pyrrolo[2,3-b]pyridin-6-yl)pyrimidin-2-yl)-2-methylpiperazin-1-yl)-2-oxoethoxy)ethyl)carbamoyl)phenoxy)nicotinamido)-5,5-dimethyl hexanoic acid], the negative-log Kd (pKd) under setting [1] is 8.00 to 9.00.
On the same count and under the same terms, the figure for `C[C@@H]1CN(c2ncc(-c3ccc4c(n3)N(Cc3cccnc3C#N)C(C)(C)C4=O)cn2)CCN1C(=O)Cn1cc(COCCOCCN2CCN(CCOCCOc3cccc(Oc4ccc(C(=O)N[C@@H](CCC(C)(C)C)C(=O)O)cn4)c3)CC2)nn1` [BF113, (2S)-2-[[6-[3-[2-[2-[4-[2-[2-[[1-[2-[(2R)-4-[5-[1-[(2-cyano-3-pyridyl)methyl]-2,2-dimethyl-3-oxo-pyrrolo[2,3-b]pyridin-6-yl]pyrimidin-2-yl]-2-methyl-piperazin-1-yl]-2-oxo-ethyl]triazol-4-yl]methoxy]ethoxy]ethyl]piperazin-1-yl]ethoxy]ethoxy]phenoxy]pyridine-3-carbonyl]amino]-5,5-dimethyl-hexanoic acid] is more than 9.00.
Take `CC[C@H](C)[C@H](NC(=O)[C@H](Cc1ccc(O)cc1)NC(=O)[C@@H](N)CCCNC(=N)N)C(=O)N[C@@H](CC(C)C)C(=O)O` [compound 32] (H-RYIL-OH): under setting [2], the negative logarithm of the Kd (pKd) is 5.60 to 6.60.
On to REAPRWDAPLRDPALRYLL-OH [compound 59], for which the pKd under setting [2] was more than 7.60.
On to `C[C@@H]1CN(c2ncc(-c3ccc4c(n3)N(Cc3cccnc3C#N)C(C)(C)C4=O)cn2)CCN1C(=O)COCCNc1cccc(Oc2ccc(C(=O)N[C@@H](CCC(C)(C)C)C(=O)O)cn2)c1` [BF047, (S)-2-(6-(3-((2-(2-((R)-4-(5-(1-((2-cyanopyridin-3-yl)methyl)-2,2-dimethyl-3-oxo-2,3-dihydro-1H-pyrrolo[2,3-b]pyridin-6-yl)pyrimidin-2-yl)-2-methylpiperazin-1-yl)-2-oxoethoxy)ethyl)amino)phenoxy)nicotinamido)-5,5-dimethylhexanoic acid], for which the negative logarithm of the Kd (pKd) under setting [1] is 8.00 to 9.00.
As for `C[C@@H]1CN(c2ncc(-c3ccc4c(n3)N(Cc3cccnc3C#N)C(C)(C)C4=O)cn2)CCN1C(=O)COCCOCCNC(=O)c1cccc(Oc2ccc(C(=O)N[C@@H](CCC(C)(C)C)C(=O)O)cn2)c1` [BF051, (2S)-2-[[6-[3-[2-[2-[2-[(2R)-4-[5-[1-[(2-cyano-3-pyridyl)methyl]-2,2-dimethyl-3-oxo-pyrrolo[2,3-b]pyridin-6-yl]pyrimidin-2-yl]-2-methyl-piperazin-1-yl]-2-oxo-ethoxy]ethoxy]ethylcarbamoyl]phenoxy]pyridine-3-carbonyl]amino]-5,5-dimethyl-hexanoic acid], the negative-log Kd (pKd) under setting [1] is 8.00 to 9.00.
`CC(C)C[C@H](NC(=O)[C@H](Cc1ccc(O)cc1)NC(=O)[C@H](Cc1ccc(O)cc1)NC(=O)[C@@H](N)Cc1ccccc1)C(=O)O` [compound 43] (H-FYYL-OH; N-terminus assumed): under setting [2], the negative logarithm of the Kd (pKd) is less than 5.60.
The same measure, in the same setting: to `CC(C)C[C@H](NC(=O)[C@H](CC(C)C)NC(=O)[C@H](Cc1ccc(O)cc1)NC(=O)[C@@H](N)Cc1ccccc1)C(=O)O` [compound 28, FYLL-OH] (H-FYLL-OH) belongs 6.60 to 7.60.
On to `CC(C)(C)CC[C@H](NC(=O)COc1cccc(Oc2ccc(C(=O)NCCOCCOCCOCCOCc3cn(CCCCCOc4ncc(-c5ccc6c(n5)N(Cc5cccnc5C#N)C(C)(C)C6=O)cn4)nn3)cn2)c1)C(=O)O` [BF075, (2S)-2-[[2-[3-[[5-[2-[2-[2-[2-[[1-[5-[5-[1-[(2-cyano-3-pyridyl)methyl]-2,2-dimethyl-3-oxo-pyrrolo[2,3-b]pyridin-6-yl]pyrimidin-2-yl]oxypentyl]triazol-4-yl]methoxy]ethoxy]ethoxy]ethoxy]ethylcarbamoyl]-2-pyridyl]oxy]phenoxy]acetyl]amino]-5,5-dimethyl-hexanoic acid], for which the “KD score, binding to sortilin (Kd)” value under setting [1] is 0.
Consider `CC[C@H](C)[C@H](NC(=O)[C@H](Cc1ccc(O)cc1)NC(=O)[C@@H](N)Cc1ccccc1)C(=O)N[C@@H](CC(C)C)C(=O)O` [compound 31] (H-FYIL-OH), for which the pKd under setting [2] was 5.60 to 6.60.
